The conditions of this series: Liquid, Gas chromatography.

Numbers after ± are expanded uncertainties.

With `C[Si]1(C)O[Si](C)(C)O[Si](C)(C)O[Si](C)(C)O[Si](C)(C)O[Si](C)(C)O[Si](C)(C)O1` [tetradecamethylcycloheptasiloxane], the “vapor or sublimation pressure” value was found to be 0.01 ± 0.0021 kPa (338.15 K); 0.0213 ± 0.0045 kPa (348.15 K); 0.04349 ± 0.0092 kPa (358.15 K); 0.08542 ± 0.018 kPa (368.15 K); 0.1619 ± 0.034 kPa (378.15 K); 0.2968 ± 0.063 kPa (388.15 K). Further, the “vapor or sublimation pressure” value was 0.528 ± 0.11 kPa (398.15 K), 0.9129 ± 0.19 kPa (408.15 K) and 1.538 ± 0.33 kPa (418.15 K).
`C[Si](C)(C)O[Si](C)(C)O[Si](C)(C)O[Si](C)(C)O[Si](C)(C)O[Si](C)(C)C` [tetradecamethylhexasiloxane]: the “vapor or sublimation pressure” value by setting is: (338.15 K) 0.01845 ± 0.0039 kPa; (348.15 K) 0.03767 ± 0.008 kPa; (358.15 K) 0.07392 ± 0.016 kPa; (368.15 K) 0.1398 ± 0.03 kPa; (378.15 K) 0.2557 ± 0.054 kPa; (388.15 K) 0.4533 ± 0.096 kPa. Further, the “vapor or sublimation pressure” value reads like this: (398.15 K) 0.7809 ± 0.17 kPa; (408.15 K) 1.31 ± 0.28 kPa; (418.15 K) 2.143 ± 0.45 kPa; (428.15 K) 3.427 ± 0.73 kPa; (438.15 K) 5.364 ± 1.1 kPa.

The record behind these values is the NIST ThermoML archive (doi:10.1021/je100835n).
